{"source": "patent US20210401798A1", "about": "“LIPOXIN A4 ANALOGS AND USES THEREOF” (The Brigham and Women's Hospital, Inc., priority 2018, published 2021)", "key": {"[1]": {"assay": "Rat pharmacokinetic study", "assay_type": "in vivo", "settings": "SD rats, IV 0.3 mg/kg", "protocol": "Sprague Dawley (SD) rats (n=3/group) were administered either compound (1) or compound (2) orally at 10 mg/kg (5% ethanol, 5% VE-TPGS, 90% PEG400) or intravenously at 0.3 mg/kg (5% NMP, 95% PEG400). The resulting individual and mean plasma concentration-time was measured for the free acid, compound (2), with the data provided in Tables 4-7."}, "[2]": {"tested_on": "peritoneal lavage cells", "assay": "Cell count in mouse peritonitis model (zymosan)", "assay_type": "in vivo"}, "[3]": {"molecular_target": "T1, human ALX/FPR2 (LXA4 Receptor) (Homo sapiens, UniProt P25090)", "T1 construct": "host or cells: HEK cells (HEK-ALX)", "T1 sequence (P25090 1-351)": "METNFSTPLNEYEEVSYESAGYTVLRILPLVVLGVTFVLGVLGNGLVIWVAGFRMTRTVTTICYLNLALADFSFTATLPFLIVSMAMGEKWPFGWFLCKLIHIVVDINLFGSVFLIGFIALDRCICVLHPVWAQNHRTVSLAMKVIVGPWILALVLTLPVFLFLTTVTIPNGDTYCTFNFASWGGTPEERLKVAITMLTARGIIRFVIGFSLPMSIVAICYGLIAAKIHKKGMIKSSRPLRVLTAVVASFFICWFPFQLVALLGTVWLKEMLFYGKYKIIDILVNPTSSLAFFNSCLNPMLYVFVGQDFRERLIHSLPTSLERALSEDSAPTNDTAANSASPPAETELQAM", "assay": "Beta-Arrestin PathHunter ALX/FPR2 activation assay", "assay_type": "cell-based", "settings": "HEK-ALX cells, 1 h at 37° C., chemiluminescence", "protocol": "(§1) Ligand receptor interactions were monitored using the Beta-Arrestin PathHunter eXpress System™ (DiscoverX, Fremont, Calif.) and carried out with HEK cells stably overexpressing recombinant human ALX receptors. HEK-ALX cells were plated onto 96-well plates 24 h prior to experiments. Test compounds at indicated concentrations were incubated with cells for 1 h at 37° C. and receptor activation was determined by measuring chemiluminescence using the PathHunter detection kit. Results are expressed as % increase of chemiluminescence above vehicle control (FIG. 3). Results are mean from 3 or 4 independent experiments and 3 replicates in each experiment."}, "[4]": {"tested_on": "PMN", "assay": "PMN clearance in vivo, E. coli initiated peritonitis", "design": "species or system mouse", "protocol": "FVB mice (male, 6 wks old) were inoculated with E. coli (10^5 CFU). […] Total leukocytes were enumerated using light microscopy and PMN numbers were determined by flow cytometry. […] Resolution indices were calculated using PMN numbers."}, "[5]": {"tested_on": "Human Mϕ", "assay": "Human macrophage phagocytosis of live E. coli", "assay_type": "cell-based", "settings": "BacLight Green-labeled E. coli, fluorescence", "protocol": "Human Mϕ were plated onto chamber slides (0.1×10^6 cells/well), incubated with RvD1, compound (10 nM), or vehicle alone for 15 min at 37° C., followed by addition of BacLight Green-labeled E. coli to initiate phagocytosis. Fluorescent images were then recorded every 10 min for 120 min (37° C.) using Keyence BZ-9000 (BIOREVO) inverted fluorescence phase-contrast microscope (40× objective) equipped with a monochrome/color switching camera using BZ-II Viewer software (Keyence, Itasca, Ill., USA). Green fluorescence intensity was quantified using BZ-II Analyzer. Results are recordings of mean fluorescence intensity (MFI) from one representative donor (FIG. 6). Human Mϕ were plated onto 96-well plates (5×10^4 cells/well), incubated with RvD1, compound (1 pM-100 nM) or vehicle alone for 15 min at 37° C., followed by addition of BacLight Green-labeled E. coli (E. coli:Mϕ=50:1) to initiate phagocytosis. One hour later, fluorescence associated with Mϕ was determined using a microplate reader. Results are expressed as percent increase above vehicle (E. coli alone); mean from 4 separate experiments (FIG. 7)."}, "[6]": {"molecular_target": "T2, human recombinant CB1 receptor (Homo sapiens, UniProt P21554)", "T2 construct": "expressed in transfected cells; host or cells: Chem cells (membrane homogenates)", "T2 sequence (P21554 whole entry)": "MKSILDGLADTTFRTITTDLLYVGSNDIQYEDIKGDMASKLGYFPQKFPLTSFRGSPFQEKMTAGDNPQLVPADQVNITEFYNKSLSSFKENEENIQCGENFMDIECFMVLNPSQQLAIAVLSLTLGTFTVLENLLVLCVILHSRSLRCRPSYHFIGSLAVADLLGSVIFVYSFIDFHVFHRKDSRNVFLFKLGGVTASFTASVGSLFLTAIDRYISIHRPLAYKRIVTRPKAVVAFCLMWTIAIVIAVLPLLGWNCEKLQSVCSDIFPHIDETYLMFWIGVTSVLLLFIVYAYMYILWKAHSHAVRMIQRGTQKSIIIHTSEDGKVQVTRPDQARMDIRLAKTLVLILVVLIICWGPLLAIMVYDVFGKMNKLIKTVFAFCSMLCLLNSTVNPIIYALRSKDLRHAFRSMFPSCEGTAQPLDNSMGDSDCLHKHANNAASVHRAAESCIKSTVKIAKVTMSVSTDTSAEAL", "assay": "CB1 radioligand binding assay", "protocol": "(§2) The binding affinity (% inhibition, K) of each of Compounds (1) and (2) for the CB1 and CB2 receptors was determined by a competitive radioligand binding assay. […] By comparison, no binding of the free acid to either the CB1 or CB2 receptors was observed (FIG. 5). The radioligand binding assays were performed as described below.\nCB1 Radioligand Binding Assay: Cell membrane homogenates (5 μg protein) prepared from Chem cells expressing human recombinant CB1 receptor were incubated for 30 min at 22° C. with 2 nM [^3H]CP 55940 (CB1/CB2 radioligand) in the absence or presence of the test compound in a buffer containing 50 mM Tris-HCl (pH 7.4), 5 mM MgCl2, 2.5 mM EDTA and 0.3% BSA. Nonspecific binding is determined in the presence of 10 μM WIN 55212-2. Each compound was tested in 8 concentrations. For each concentration, % Inhibition was determined as a function of radioligand specific binding to the CB1 receptor. The K was determined from the concentration-response curve of each tested compound.\n(§3) Further details for determining the binding affinity of compounds for a cannabinoid receptor by competitive radioligand binding can be found in the literature, for example, in Rinaldi-Carmona M, et al. Characterization of two cloned human CB1 cannabinoid receptors isoform. […]"}, "[7]": {"molecular_target": "T3, human recombinant CB2 receptor (Homo sapiens, UniProt P34972)", "T3 construct": "expressed in transfected cells; host or cells: CHO cells (membrane homogenates)", "T3 sequence (P34972 whole entry)": "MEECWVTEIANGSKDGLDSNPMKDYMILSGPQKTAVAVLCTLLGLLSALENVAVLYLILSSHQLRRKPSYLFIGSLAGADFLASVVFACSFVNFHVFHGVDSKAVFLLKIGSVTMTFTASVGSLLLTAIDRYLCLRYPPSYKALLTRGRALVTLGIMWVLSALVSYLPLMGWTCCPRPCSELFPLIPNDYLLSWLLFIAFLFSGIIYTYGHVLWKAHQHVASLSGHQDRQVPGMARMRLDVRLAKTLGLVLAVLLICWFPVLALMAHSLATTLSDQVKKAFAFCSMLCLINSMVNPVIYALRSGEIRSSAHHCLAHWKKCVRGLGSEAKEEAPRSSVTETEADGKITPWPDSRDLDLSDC", "assay": "CB2 radioligand binding assay", "protocol": "as §2\nCB2 Radioligand Binding Assay: Cell membrane homogenates (12 μg protein) prepared from CHO cells expressing human recombinant CB2 receptor were incubated for 120 min at 37° C. with 0.8 nM [^3H]WIN 55212-2 (CB1/CB2 radioligand) in the absence or presence of the test compound in a buffer containing 50 mM Hepes/Tris (pH 7.4), 5 mM MgCl2, 2.5 mM EGTA and 0.1% BSA. Nonspecific binding was determined in the presence of 5 μM WIN 55212-2. Each compound was tested in 8 concentrations. For each concentration, % Inhibition was determined as a function of radioligand specific binding to the CB2 receptor. The K was determined from the concentration-response curve of each tested compound.\nas §3"}, "[8]": {"molecular_target": "T4, human GPR32 (RvD1 Receptor) (Homo sapiens, UniProt O75388)", "T4 construct": "host or cells: CHO cells (CHO-GPR32)", "T4 sequence (O75388 whole entry)": "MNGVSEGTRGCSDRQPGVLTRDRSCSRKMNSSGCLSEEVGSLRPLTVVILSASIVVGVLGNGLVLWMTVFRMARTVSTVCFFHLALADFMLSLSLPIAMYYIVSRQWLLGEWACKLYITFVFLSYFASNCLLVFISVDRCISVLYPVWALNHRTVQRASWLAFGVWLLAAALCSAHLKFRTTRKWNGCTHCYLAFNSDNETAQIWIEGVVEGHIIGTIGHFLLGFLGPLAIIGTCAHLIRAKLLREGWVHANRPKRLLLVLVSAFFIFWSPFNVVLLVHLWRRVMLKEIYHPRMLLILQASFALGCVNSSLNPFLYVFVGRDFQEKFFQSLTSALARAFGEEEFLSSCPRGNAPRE", "assay": "Beta-Arrestin PathHunter GPR32 activation assay", "assay_type": "cell-based", "settings": "CHO-GPR32 cells, 1 h at 37° C., chemiluminescence", "protocol": "as §1, with “with CHO” for “with HEK”, “human GPR32” for “human ALX”, “receptors. CHO-GPR32” for “receptors. HEK-ALX”, “kit. The results of this experiment” for “kit. Results”, “(FIG. 2).” for “(FIG. 3).”"}, "[9]": {"settings": "24 h post-zymosan, 0.1 μg/mouse"}, "[10]": {"settings": "FVB mice, 100 ng i.p. 12 h after inoculation"}}, "note": "pKi: −log10 of the molar value.", "data": [{"smiles": "O=C1COC[C@@H]([C@H](O)/C=C/C=C/C#C/C=C/[C@H](O)COc2ccc(F)cc2)O1", "note": "[Compound (1), (S)-6-((1R,2E,4E,8E,10S)-11-(4-fluorophenoxy)-1,10-dihydroxyundeca-2,4,8-trien-6-yn-1-yl)-1,4-dioxan-2-one]", "values": [{"measurement": "plasma Concentration of compound (2), Individual", "setting": "[1]; 8 hr, 0.3 mg/kg", "result": "BQL"}, {"measurement": "plasma Concentration of compound (2), Individual", "setting": "[1]; 12 hr, 0.3 mg/kg", "result": "BQL"}, {"measurement": "plasma Concentration of compound (2), Individual", "setting": "[1]; 24 hr", "result": "BQL"}, {"measurement": "plasma Concentration of compound (2), Mean", "setting": "[1]; 24 hr", "result": "BQL"}, {"measurement": "Estimated PMNs", "setting": "[2]; 3 h post-zymosan, 0.1 μg/mouse", "result": "5977.50 10^3/ml"}, {"measurement": "Granulocytes Counted (100 cells)", "setting": "[2]; 3 h post-zymosan, 0.1 μg/mouse", "result": 96.4}, {"measurement": "Mononuclear Counted (100 cells)", "setting": "[2]; 3 h post-zymosan, 0.1 μg/mouse", "result": 3.6}, {"measurement": "Nucleated Cells", "setting": "[2]; 3 h post-zymosan, 0.1 μg/mouse", "result": "6165.00 10^3/ml"}, {"measurement": "Estimated PMNs", "setting": "[2]; 3 h post-zymosan, 10 μg/mouse", "result": "*4012.13 10^3/ml"}, {"measurement": "Granulocytes Counted (100 cells)", "setting": "[2]; 3 h post-zymosan, 10 μg/mouse", "result": 95.0}, {"measurement": "Mononuclear Counted (100 cells)", "setting": "[2]; 3 h post-zymosan, 10 μg/mouse", "result": 5.0}, {"measurement": "Nucleated Cells", "setting": "[2]; 3 h post-zymosan, 10 μg/mouse", "result": "*4237.50 10^3/ml"}, {"measurement": "Estimated PMNs", "setting": "[2]; [9]", "result": "14672.70 10^3/ml"}, {"measurement": "Granulocytes Counted (100 cells)", "setting": "[2]; [9]", "result": 88.8}, {"measurement": "Mononuclear Counted (100 cells)", "setting": "[2]; [9]", "result": 11.2}, {"measurement": "Nucleated Cells", "setting": "[2]; [9]", "result": "16380.00 10^3/ml"}, {"measurement": "activation of human ALX/FPR2 (LXA4 Receptor)", "setting": "[3]", "result": "activates"}, {"measurement": "Resolution Interval", "setting": "[4]; [10]", "result": 11, "unit": "h"}, {"measurement": "T50", "setting": "[4]; [10]", "result": 23, "unit": "h"}, {"measurement": "Tmax", "setting": "[4]; [10]", "result": 12, "unit": "h"}, {"measurement": "reduction of Tmax", "setting": "[4]; vs E. coli alone", "result": 50, "unit": "%"}, {"measurement": "human macrophage phagocytosis of live E. coli", "setting": "[5]", "result": "enhances"}, {"measurement": "pKi", "setting": "[6]; [3H]CP 55940 competition, read-out: K (binding affinity) CB1 receptor", "result": "< 5.30"}, {"measurement": "pKi", "setting": "[7]; [3H]WIN 55212-2 competition, read-out: K (binding affinity) CB2 receptor", "result": 6.20}, {"measurement": "activation of human GPR32 (RvD1 Receptor)", "setting": "[8]", "result": "activates"}]}, {"smiles": "O=C(O)COC[C@H](O)[C@H](O)/C=C/C=C/C#C/C=C/[C@H](O)COc1ccc(F)cc1", "note": "[Compound (2), 2-(((2S,3R,4E,6E,10E,12S)-13-(4-fluorophenoxy)-2,3,12-trihydroxytrideca-4,6,10-trien-8-yn-1-yl)oxy)acetic acid, reference compound]", "values": [{"measurement": "plasma Concentration of compound (2), Individual", "setting": "[1]; 12 hr, 0.3 mg/kg", "result": "BQL"}, {"measurement": "plasma Concentration of compound (2), Individual", "setting": "[1]; 24 hr", "result": "BQL"}, {"measurement": "plasma Concentration of compound (2), Mean", "setting": "[1]; 24 hr", "result": "BQL"}, {"measurement": "binding to CB1 receptor", "setting": "[6]; radioligand binding", "result": "no binding"}, {"measurement": "binding to CB2 receptor", "setting": "[7]; radioligand binding", "result": "no binding"}]}, {"smiles": "CC/C=C\\C[C@H](O)/C=C/C=C\\C=C\\C=C\\[C@@H](O)[C@@H](O)C/C=C\\CCC(=O)O", "note": "[RvD1, resolvin D1, reference compound]", "values": [{"measurement": "Estimated PMNs", "setting": "[2]; 3 h post-zymosan, 0.1 μg/mouse", "result": "5723.25 10^3/ml"}, {"measurement": "Granulocytes Counted (100 cells)", "setting": "[2]; 3 h post-zymosan, 0.1 μg/mouse", "result": 89.8}, {"measurement": "Mononuclear Counted (100 cells)", "setting": "[2]; 3 h post-zymosan, 0.1 μg/mouse", "result": 10.8}, {"measurement": "Nucleated Cells", "setting": "[2]; 3 h post-zymosan, 0.1 μg/mouse", "result": "6375.00 10^3/ml"}, {"measurement": "Estimated PMNs", "setting": "[2]; 3 h post-zymosan, 1 μg/mouse", "result": "6685.13 10^3/ml"}, {"measurement": "Granulocytes Counted (100 cells)", "setting": "[2]; 3 h post-zymosan, 1 μg/mouse", "result": 96.3}, {"measurement": "Mononuclear Counted (100 cells)", "setting": "[2]; 3 h post-zymosan, 1 μg/mouse", "result": 3.8}, {"measurement": "Nucleated Cells", "setting": "[2]; 3 h post-zymosan, 1 μg/mouse", "result": "6232.50 10^3/ml"}, {"measurement": "Estimated PMNs", "setting": "[2]; 24 h post-zymosan, 1 μg/mouse", "result": "11496.23 10^3/ml"}, {"measurement": "Granulocytes Counted (100 cells)", "setting": "[2]; 24 h post-zymosan, 1 μg/mouse", "result": 86.6}, {"measurement": "Mononuclear Counted (100 cells)", "setting": "[2]; 24 h post-zymosan, 1 μg/mouse", "result": 13.4}, {"measurement": "Nucleated Cells", "setting": "[2]; 24 h post-zymosan, 1 μg/mouse", "result": "13267.50 10^3/ml"}]}]}
